The record followed here is paper PMC5717651, “Biotransformation of labdane and halimane diterpenoids by two filamentous fungi strains” (Royal Society Open Science, 2017).

Read-outs that look alike come from different tables or passages of the source.

In test [1] the target is T1, human recombinant acetylcholinesterase (Hr-AChE) (Homo sapiens, UniProt P22303).
T1 construct: purchased Sigma-Aldrich C1682
Nature of the test: biochemical. The note with it: for inhibitory activity on Hr-AChE (in words): authors' verbal rating; for inhibition at 100 µM: pH 8, at 100 µM compound, 70 µM acetylcholine, ammonium acetate 15.0 mM, pH 8.0, n = 3, read-out: % inhibition ± s.e.m. ICER-AChEhr. As for the experimental part: (§1) Hr-AChE-ICER and Hu-BChE-ICER were prepared by covalent enzyme immobilization onto fused silica capillary tubing (30 cm × 0.375 mm × 100 µm I.D.) according to a previously described procedure. Resulting ICERs were connected to an on-flow LC-IT-MS/MS system (EMU FAPESP—Proc. PROEM 2014/50299-5) as biochromatography columns.
(§2) LC system (Shimadzu, Kyoto, Japan) consisted of two Nexera LC-20ADXR pumps, an SIL 20A auto sampler, with a 50 µl loop, a DGU-20A5 degasser and a CBM-20 interface. LC equipment was connected to an AmaZon Speed Ion Trap Mass Spectrometer equipped with an ESI source, operating in positive ion mode. Data were acquired using software Data Analysis 4.1 (Bruker Daltonics). LC analyses were performed at 25°C. Enzymatic reactions were monitored by direct quantification of choline (Ch, [M + H]^+ m/z 104), the hydrolysis product of ACh.
(§3) Samples were solubilized in methanol to provide a stock solution of 1.00 mM for each compound. Assay samples (100 µl) were prepared using 10 µl of stock solution (100 µM final concentration), 20 µl of acetylcholine solution (70 µM final concentration) and 70 µl of ammonium acetate solution (15.0 mM, pH 8.0). Solutions were prepared in duplicate and 20 µl aliquots were used for injection. Negative (absence of ACh) and positive (presence of ACh and absence of ligand) controls were analysed between each AChEI sample.

Test [2] concerns the target T2, human serum butyrylcholinesterase (Hu-BChE) (Homo sapiens, UniProt P06276).
T2 construct: purchased Sigma-Aldrich B4186; host or cells: human serum
Nature of the test: On-flow Hu-BChE-ICER-IT-MS/MS screening assay (hydrolysis of acetylcholine, choline quantified). In kind it is biochemical. The note with it: for inhibitory activity on Hu-BChE (in words): authors' verbal rating. As to the method:
as §1, §2, §3

Setting [3] is: at 100 µM compound, 70 µM acetylcholine, ammonium acetate 15.0 mM, pH 8.0, n = 3, read-out: % inhibition ± s.e.m. ICER-BChEhu.
Where [4] appears, read: immobilized Hr-AChE capillary reactor (ICER), read-out: IC50 AChEhr.

T1 sequence (P22303 32-614): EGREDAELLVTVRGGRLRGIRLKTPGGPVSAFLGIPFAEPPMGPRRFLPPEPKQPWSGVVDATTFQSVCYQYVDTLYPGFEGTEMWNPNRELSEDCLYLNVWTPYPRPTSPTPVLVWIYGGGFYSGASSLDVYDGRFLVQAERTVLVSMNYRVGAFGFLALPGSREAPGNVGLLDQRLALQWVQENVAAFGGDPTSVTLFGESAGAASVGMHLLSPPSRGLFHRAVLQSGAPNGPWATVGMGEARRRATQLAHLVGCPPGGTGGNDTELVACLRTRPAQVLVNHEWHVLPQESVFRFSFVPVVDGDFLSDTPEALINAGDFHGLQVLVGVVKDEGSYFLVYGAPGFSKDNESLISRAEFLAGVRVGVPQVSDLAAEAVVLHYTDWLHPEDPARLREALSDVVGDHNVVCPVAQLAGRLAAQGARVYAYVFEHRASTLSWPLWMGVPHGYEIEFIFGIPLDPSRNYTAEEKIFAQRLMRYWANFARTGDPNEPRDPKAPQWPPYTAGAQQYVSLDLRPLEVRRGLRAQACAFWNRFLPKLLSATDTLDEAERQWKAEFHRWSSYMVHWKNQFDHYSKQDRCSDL
T2 sequence (P06276 29-602): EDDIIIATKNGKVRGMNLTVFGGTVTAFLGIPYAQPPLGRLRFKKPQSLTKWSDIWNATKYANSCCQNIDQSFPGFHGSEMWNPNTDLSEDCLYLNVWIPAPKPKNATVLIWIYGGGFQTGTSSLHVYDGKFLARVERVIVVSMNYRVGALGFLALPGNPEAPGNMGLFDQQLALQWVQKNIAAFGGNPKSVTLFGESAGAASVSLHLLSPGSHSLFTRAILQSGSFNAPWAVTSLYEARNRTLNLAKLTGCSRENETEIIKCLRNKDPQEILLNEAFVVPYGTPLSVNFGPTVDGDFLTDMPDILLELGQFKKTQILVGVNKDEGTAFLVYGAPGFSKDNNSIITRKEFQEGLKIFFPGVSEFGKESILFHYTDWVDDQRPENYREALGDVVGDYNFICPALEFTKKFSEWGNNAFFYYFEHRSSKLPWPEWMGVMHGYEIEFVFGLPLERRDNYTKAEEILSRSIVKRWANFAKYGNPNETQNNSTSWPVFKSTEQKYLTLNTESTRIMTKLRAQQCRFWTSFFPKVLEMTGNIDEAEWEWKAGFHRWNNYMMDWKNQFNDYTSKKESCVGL

For the molecule `C/C(=C\C(=O)O)CC[C@@H]1[C@@]2(C)CCCC(C)(C)[C@@H]2CC[C@@]1(C)O` [Compound 2, (+)-(5S, 8R, 9R, 10S)-Lab-13-en-8α-ol-15-oic acid], in test [1], the IC50 was more than 100 µM, the “inhibitory activity on Hr-AChE (in words)” value is given as “weak inhibitory activity” and the inhibition at 100 µM came to 26.5 ± 3.1%. The inhibition at 100 µM in test [2] (setting [3]) stood at 13.3 ± 0.39%. The “inhibitory activity on Hu-BChE (in words)” value in test [2] was “weak inhibitory activity”.

Turning to `C/C(=C\C(=O)O)CC[C@]1(C)C2=CCC[C@@](C)(C=O)[C@H]2CC[C@H]1C` [Compound 6, (+)-(4R, 5S, 8R, 9S)-18-Formyl-ent-halima-1(10),13-(E)-dien-15-oic acid], the 50% inhibitory concentration (IC50) in test [1] (setting [4]) was more than 100 µM. Besides, the inhibition at 100 µM worked out at 3.23 ± 1.7% in test [1] and 25.07 ± 0.14% in test [2] (setting [3]).

`C/C(=C\C(=O)O)CC[C@H]1[C@](C)(O)[C@H](O)C[C@H]2C(C)(C)CCC[C@@]21C` (relative stereo) [Compound 7, (-)-(5S*, 7R*, 8R*, 9R*, 10S*)-Lab-13-en-7α,8α-diol-15-oic acid]: the IC50 in test [1] (setting [4]) was more than 100 µM. The inhibition at 100 µM came to 4.71 ± 0.11% in test [1] and 20.1 ± 1.73% in test [2] (setting [3]).

Regarding `C/C(=C\C(=O)O)CC[C@]1(C)C2=CCC[C@@](C)(CO)[C@H]2CC[C@H]1C` [Compound 1, (+)-(4R, 5S, 8R, 9S)-18-Hydroxy-ent-halima-1(10),13-(E)-dien-15-oic acid], the “inhibitory activity on Hr-AChE (in words)” value in test [1] is on record as “weak inhibitory activity”. Moreover, the IC50 in test [1] (setting [4]) is more than 100 µM. The inhibition at 100 µM turned out to be 24.96 ± 0.04% in test [1] and 36.09 ± 0.28% in test [2] (setting [3]). In addition, in test [2], the “inhibitory activity on Hu-BChE (in words)” value is on record as “weak inhibitory activity”.

For the molecule `C/C(=C\C(=O)O)CC[C@]1(C)C2=CCC[C@@](C)(C(=O)O)[C@H]2CC[C@H]1C` [Compound 5, (+)-(4R, 5S, 8R, 9S)-18-Carboxy-ent-halima-1(10),13-(E)-dien-15-oic acid], in test [1], the “inhibitory activity on Hr-AChE (in words)” value was “inactive” and the inhibition at 100 µM is approximately 50%. Further, in test [1] (setting [4]), the IC50 was more than 100 µM. Moreover, the inhibition at 100 µM in test [2] (setting [3]) is 8.17 ± 1.32%.

Take `COc1ccc2c3c1O[C@H]1C[C@@H](O)C=C[C@@]31CCN(C)C2` [Gal, Galanthamine, reference compound]: in test [2] (pH 8, read-out: % inhibition ± s.e.m. ICER-BChEhu), the inhibition at 100 µM turned out to be 75.8 ± 1.74%.

Consider `C/C(=C\C(=O)O)CC[C@]1(C)C2=CCCC(CO)(CO)[C@H]2CC[C@H]1C` [Compound 4, (+)-(5S, 8R, 9S)-18,19-Dihydroxy-ent-halima-1(10),13-(E)-dien-15-oic acid], for which, in test [1] (setting [4]), the IC50 was more than 100 µM. In addition, the values for the inhibition at 100 µM in test [1] and in test [2] (setting [3]) were 39.4 ± 3.86% and 14.5 ± 2.42%, respectively.

Take `C/C(=C\C(=O)O)CC[C@@H]1[C@@]2(C)CC[C@H](O)C(C)(C)[C@@H]2CC[C@@]1(C)O` (relative stereo) [Compound 8, (+)-(3S*, 5S*, 8R*, 9R*, 10S*)-Lab-13-en-3β,8α-diol-15-oic acid]: the “inhibitory activity on Hr-AChE (in words)” value in test [1] was “weakly active”. In addition, the IC50 in test [1] (setting [4]) worked out at 95.7 ± 1.7 µM. Also, the inhibition at 100 µM in test [1] is approximately 50%; in test [2] (setting [3]), 13.3 ± 2.62%.

With `C/C(=C\C(=O)O)CC[C@]1(C)C2=CC(=O)C[C@@](C)(CO)[C@H]2CC[C@H]1C` [Compound 3, (+)-(4R, 5S, 8R, 9S)-2-Oxo-18-hydroxy-ent-halima-1(10),13-(E)-dien-15-oic acid], the 50% inhibitory concentration (IC50) in test [1] (setting [4]) is more than 100 µM. Further, the inhibition at 100 µM in test [1] is 30.13 ± 0.3%; in test [2] (setting [3]), 14.5 ± 2.47%.
